# Laboratory results taken from the supplement of paper PMC10307832.
# Key:
# Assay in all cases: relative viability (nuclei count vs DMSO), 5 days (fraction); higher = more cells survive
# Kobe2602 + Trametinib = compound: C1=CC(=CC=C1NC(=S)NNC2=C(C=C(C=C2[N+](=O)[O-])C(F)(F)F)[N+](=O)[O-])F [Kobe2602] + CC(=O)Nc1cccc(-n2c(=O)n(C3CC3)c(=O)c3c(Nc4ccc(I)cc4F)n(C)c(=O)c(C)c32)c1 [Trametinib] (partner 0.02 µM)
# How it was run: (§1)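 A single step with final 0.05% Triton X-100, 1% formaldehyde and 1 ug/ml Hoechst fixed the cells and stained nuclei 5 days after treatment. Lung cancer cell lines in 1536-well plates had been treated by pin tool the day after seeding with one drug alone or a fixed anchor-drug dose plus five library-drug doses (not always all listed) in √10 steps, and nuclei were counted on 4× images. Relative viability is the ratio of nuclei in treated wells to nuclei in vehicle wells, taken as the median of duplicate plates.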
# Kobe2602 + Foretinib = compound: C1=CC(=CC=C1NC(=S)NNC2=C(C=C(C=C2[N+](=O)[O-])C(F)(F)F)[N+](=O)[O-])F [Kobe2602] + COc1cc2c(Oc3ccc(NC(=O)C4(C(=O)Nc5ccc(F)cc5)CC4)cc3F)ccnc2cc1OCCCN1CCOCC1 [Foretinib] (partner 0.25 µM)
# How it was run: as §1
# Kobe2602 + Tozasertib = compound: C1=CC(=CC=C1NC(=S)NNC2=C(C=C(C=C2[N+](=O)[O-])C(F)(F)F)[N+](=O)[O-])F [Kobe2602] + Cc1cc(Nc2cc(N3CCN(C)CC3)nc(Sc3ccc(NC(=O)C4CC4)cc3)n2)n[nH]1 [Tozasertib] (partner 0.1 µM)
# How it was run: as §1
# Zosuquidar + Foretinib = compound: O[C@@H](COc1cccc2ncccc12)CN1CCN([C@@H]2c3ccccc3[C@@H]3[C@H](c4ccccc42)C3(F)F)CC1 [Zosuquidar] + COc1cc2c(Oc3ccc(NC(=O)C4(C(=O)Nc5ccc(F)cc5)CC4)cc3F)ccnc2cc1OCCCN1CCOCC1 [Foretinib] (partner 0.25 µM)
# How it was run: as §1
Cell Line,relative viability (Kobe2602 + Trametinib; first compound 0.2 µM),relative viability (Kobe2602 + Trametinib; first compound 0.6325 µM),relative viability (Kobe2602 + Trametinib; first compound 2 µM),relative viability (Kobe2602 + Trametinib; first compound 6.325 µM),relative viability (Kobe2602 + Trametinib; first compound 20 µM),relative viability (Kobe2602 + Foretinib; first compound 0.2 µM),relative viability (Kobe2602 + Foretinib; first compound 0.6325 µM),relative viability (Kobe2602 + Foretinib; first compound 2 µM),relative viability (Kobe2602 + Foretinib; first compound 6.325 µM),relative viability (Kobe2602 + Foretinib; first compound 20 µM),relative viability (Kobe2602 + Tozasertib; first compound 0.2 µM),relative viability (Kobe2602 + Tozasertib; first compound 0.6325 µM),relative viability (Kobe2602 + Tozasertib; first compound 2 µM),relative viability (Kobe2602 + Tozasertib; first compound 6.325 µM),relative viability (Kobe2602 + Tozasertib; first compound 20 µM),relative viability (Zosuquidar + Foretinib; first compound 0.01 µM),relative viability (Zosuquidar + Foretinib; first compound 0.03162 µM),relative viability (Zosuquidar + Foretinib; first compound 0.1 µM),relative viability (Zosuquidar + Foretinib; first compound 0.3162 µM),relative viability (Zosuquidar + Foretinib; first compound 1 µM)
SK-MES-1,0.579,0.534,0.554,0.589,0.496,0.922,0.99,0.918,0.99,0.898,0.822,0.878,0.791,0.737,0.55,0.891,0.872,0.879,1.05,0.94
HCC-366,0.284,0.386,0.31,0.297,0.302,0.945,0.969,0.966,0.919,0.959,0.0819,0.0969,0.0807,0.0437,0.0481,0.922,0.856,0.999,0.96,0.869
NCI-H3122,0.257,0.242,0.211,0.214,0.238,0.969,0.88,0.967,0.925,0.967,0.451,0.381,0.399,0.393,0.403,0.891,0.922,0.909,0.934,0.955
COR-L 105,0.378,0.49,0.417,0.395,0.402,0.986,1.02,0.867,1.1,0.979,0.364,0.322,0.371,0.401,0.366,0.865,0.888,1.29,1.04,0.899
201T,0.711,0.715,0.741,0.771,0.677,1.16,1.17,1.04,0.946,0.93,0.94,0.968,0.966,0.924,0.881,1.16,1.17,0.935,1.04,1.19
NCI-H2228,0.645,0.612,0.41,0.461,0.742,0.923,0.806,0.734,0.817,0.862,0.19,0.239,0.246,0.234,0.219,0.933,0.438,0.995,0.768,0.714
LC-2-ad,0.931,0.895,0.849,0.936,0.89,0.94,0.946,0.932,1.03,0.996,0.478,0.534,0.489,0.453,0.472,0.975,0.933,0.862,1.03,0.931
NCI-H2087,0.29,0.188,0.173,0.196,0.191,1.09,1.18,1.07,1.11,1.18,0.282,0.247,0.251,0.243,0.246,1,–,0.992,1.21,1.12
LK-2,0.839,0.856,0.744,0.631,0.852,1.48,1.74,1.28,1.14,1.41,0.174,0.188,0.189,0.174,0.174,1.32,1.03,1.3,1.05,1.23
H3255,0.621,0.629,0.549,0.632,0.588,0.946,0.834,0.784,0.882,0.944,0.628,0.612,0.488,0.55,0.607,0.957,0.607,0.621,0.938,0.738
NCI-H2347,0.291,0.251,0.336,0.304,0.326,1.32,1.38,0.83,0.63,0.868,0.708,0.647,0.512,0.495,0.55,1.01,1.06,0.556,0.978,0.869
CAL-12T,0.331,0.337,0.37,0.412,0.318,1.02,1.02,1.09,1.05,1.06,0.292,0.282,0.248,0.21,0.244,1.12,1.18,0.978,1.18,1.02
A-427,0.804,0.745,0.793,0.739,0.742,0.983,1.21,1.06,1.1,1.08,0.233,0.242,0.198,0.229,0.218,1.1,0.983,0.96,1.18,1.06
HARA,0.846,0.636,0.627,0.771,0.752,0.996,0.795,0.893,0.856,0.892,0.117,0.102,0.122,0.508,0.123,0.857,–,0.883,0.866,0.999
NCI-H2170,0.982,0.918,0.921,0.878,0.922,0.966,1.04,1.01,1.01,0.963,0.65,0.729,0.721,0.78,0.694,0.979,1.02,0.993,1.02,1.02
NCI-H1623,–,–,–,–,–,0.966,0.954,0.79,0.809,0.854,0.42,0.433,0.396,0.439,0.412,0.868,0.832,0.821,0.933,0.803
NCI-H2023,0.469,0.608,0.592,0.444,0.201,0.931,0.803,0.825,0.931,0.933,0.253,0.326,0.244,0.175,0.157,0.936,0.759,0.689,0.998,0.99
ABC-1,–,–,–,–,–,0.957,0.922,–,0.93,1.3,0.201,0.181,–,0.216,0.215,0.926,1.03,1.17,1.32,0.95
IA-LM,–,–,–,–,–,1.09,1.01,0.953,1.24,1.01,–,–,–,–,–,1.09,1.23,1.26,1.34,1.17

Cell Line,relative viability (Kobe2602 + Trametinib; first compound 0.2 µM),relative viability (Kobe2602 + Trametinib; first compound 0.6325 µM),relative viability (Kobe2602 + Trametinib; first compound 2 µM),relative viability (Kobe2602 + Trametinib; first compound 6.325 µM),relative viability (Kobe2602 + Trametinib; first compound 20 µM),relative viability (Kobe2602 + Foretinib; first compound 0.2 µM),relative viability (Kobe2602 + Foretinib; first compound 0.6325 µM),relative viability (Kobe2602 + Foretinib; first compound 2 µM),relative viability (Kobe2602 + Foretinib; first compound 6.325 µM),relative viability (Kobe2602 + Foretinib; first compound 20 µM),relative viability (Kobe2602 + Tozasertib; first compound 0.2 µM),relative viability (Kobe2602 + Tozasertib; first compound 0.6325 µM),relative viability (Kobe2602 + Tozasertib; first compound 2 µM),relative viability (Kobe2602 + Tozasertib; first compound 6.325 µM),relative viability (Kobe2602 + Tozasertib; first compound 20 µM),relative viability (Zosuquidar + Foretinib; first compound 0.01 µM),relative viability (Zosuquidar + Foretinib; first compound 0.03162 µM),relative viability (Zosuquidar + Foretinib; first compound 0.1 µM),relative viability (Zosuquidar + Foretinib; first compound 0.3162 µM),relative viability (Zosuquidar + Foretinib; first compound 1 µM)
NCI-H520,0.682,0.642,0.744,0.644,0.788,0.701,0.846,0.738,0.708,0.892,0.519,0.507,0.402,0.38,0.481,0.882,0.849,–,0.619,0.685
NCI-H1915,0.291,0.312,0.292,0.312,0.346,1.11,1.09,1.08,1.02,1.06,0.422,0.43,0.393,0.438,0.399,0.951,1.11,1.07,1.12,1.13
NCI-H1299,–,–,–,–,–,1.06,1.09,1.05,1.13,1.03,–,–,–,–,–,1.09,1.08,1.15,1.14,1.06
HCC-827,0.546,0.546,0.571,0.537,0.558,0.999,1.11,1.03,1.04,1.1,0.444,0.448,0.391,0.416,0.425,1.05,1.03,0.9,1.01,1.02
EMC-BAC-2,0.822,0.874,0.898,0.91,0.807,0.938,1.03,0.99,1.04,1.02,0.286,0.297,0.286,0.333,0.32,0.965,1.11,0.995,1.06,0.985
NCI-H650,0.943,0.961,1,0.993,0.845,1.1,1.01,1.05,1.05,0.907,0.738,0.757,0.746,0.789,0.623,1.03,0.984,0.908,1.15,0.939
NCI-H1792,0.445,0.446,0.401,0.564,0.366,–,–,–,–,–,–,–,–,–,–,–,–,–,–,–
NCI-H2009,0.297,0.373,0.332,0.305,0.274,1.15,1.32,1.21,1.19,1.19,0.713,0.801,0.619,0.715,0.7,1.24,1.2,1.24,1.2,1.23
NCI-H2405,0.644,0.712,0.621,0.66,0.669,1.05,1.04,1.01,1.06,1.07,0.804,0.758,0.732,0.767,0.853,1.05,1.06,0.946,1.05,1.04
SW 900,0.959,0.745,0.807,0.677,0.548,0.979,0.926,0.821,0.854,0.993,0.561,0.621,0.458,0.379,0.512,0.761,0.86,0.819,0.952,0.854
NCI-H1563,–,–,–,–,–,0.996,0.928,0.964,1.02,0.996,–,–,–,–,–,1.04,0.9,0.967,1.1,0.932
Calu-6,–,–,–,–,–,0.858,0.935,0.894,0.86,0.875,–,–,–,–,–,0.842,0.916,1.03,0.942,0.902
EBC-1,–,–,–,–,–,0.116,0.108,0.113,0.0943,0.111,–,–,–,–,–,0.121,0.106,0.093,0.095,0.097
NCI-H1703,–,–,–,–,–,0.404,0.349,0.4,0.321,0.329,–,–,–,–,–,0.353,0.287,0.341,0.393,0.33
HCC-44,1.04,1.16,1.02,0.939,0.967,–,–,–,–,–,0.906,0.838,0.92,0.861,0.687,–,–,–,–,–
NCI-H1648,0.474,0.488,0.465,0.457,0.408,–,–,–,–,–,0.465,0.43,0.468,0.513,0.393,–,–,–,–,–
NCI-H522,0.9,0.947,0.736,0.742,0.723,–,–,–,–,–,0.68,0.644,0.552,0.592,0.568,–,–,–,–,–
A549,–,–,–,–,–,0.955,0.991,0.908,0.924,0.958,–,–,–,–,–,0.879,0.84,0.906,0.983,0.956
